Test results taken from ChEMBL document CHEMBL1201862, “PubChem BioAssay data set” (2004).
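48-hour exposure; five concentrations; linearly interpolated endpoints. GI50 = concentration required for 50% inhibition of growth.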 Active and inactive are the calls of the source. No stated cut-off is given here; in the data, active = GI50 up to about 1.1 µM and inactive = higher.

Columns and labels:
Assay in all cases: DTP human tumour cell line panel, 48 h
Hs-578T = tested on: Hs-578T
NCI-H226 = tested on: NCI-H226
OVCAR-4 = tested on: OVCAR-4
KM12 = tested on: KM12
CAKI-1 = tested on: CAKI-1
NCI/ADR-RES = tested on: NCI/ADR-RES
U-251 = tested on: U-251
RXF 393 = tested on: RXF 393
SK-OV-3 = tested on: SK-OV-3
SN12C = tested on: SN12C
NCI-H23 = tested on: NCI-H23
Malme-3M = tested on: Malme-3M
SK-MEL-5 = tested on: SK-MEL-5
OVCAR-8 = tested on: OVCAR-8
786-0 = tested on: 786-0
HOP-92 = tested on: HOP-92
OVCAR-5 = tested on: OVCAR-5
HOP-62 = tested on: HOP-62
KM-20L2 = tested on: KM-20L2
M19-MEL = tested on: M19-MEL

Compound | GI50 (Hs-578T) | GI50 (NCI-H226) | GI50 (OVCAR-4) | GI50 (KM12) | GI50 (CAKI-1) | GI50 (NCI/ADR-RES) | GI50 (U-251) | GI50 (RXF 393) | GI50 (SK-OV-3) | GI50 (SN12C) | GI50 (NCI-H23) | GI50 (Malme-3M) | GI50 (SK-MEL-5) | GI50 (OVCAR-8) | GI50 (786-0) | GI50 (HOP-92) | GI50 (OVCAR-5) | GI50 (HOP-62) | GI50 (KM-20L2) | GI50 (M19-MEL)
CN(C)Cc1ccc(O)c(CN(C)C)n1 | > 100 µM (inactive) | > 100 µM (inactive) | > 100 µM (inactive) | > 100 µM (inactive) | > 100 µM (inactive) | > 100 µM (inactive) | > 100 µM (inactive) | > 100 µM (inactive) | > 100 µM (inactive) | > 100 µM (inactive) | > 100 µM (inactive) | > 100 µM (inactive) | > 100 µM (inactive) | > 100 µM (inactive) | > 100 µM (inactive) | > 100 µM (inactive) | > 100 µM (inactive) | > 100 µM (inactive) | – | –
COc1cccc(NC(=O)CC(=O)N2NC(C)C(/N=N/c3cccc(C(=O)O)c3)C2=O)c1 (stereo not drawn) | – | > 100 µM (inactive) | > 100 µM (inactive) | > 100 µM (inactive) | > 100 µM (inactive) | – | > 100 µM (inactive) | – | > 100 µM (inactive) | > 100 µM (inactive) | > 100 µM (inactive) | > 100 µM (inactive) | > 100 µM (inactive) | > 100 µM (inactive) | > 100 µM (inactive) | > 100 µM (inactive) | > 100 µM (inactive) | > 100 µM (inactive) | > 100 µM (inactive) | > 100 µM (inactive)
O=C(O)c1cnccc1-c1cc(=O)[nH]n1-c1ccccc1 | > 91.8 µM (inactive) | > 100 µM (inactive) | > 51.9 µM (inactive) | 9.75 µM (inactive) | 15.4 µM (inactive) | 27.6 µM (inactive) | > 100 µM (inactive) | 98.6 µM (inactive) | > 100 µM (inactive) | > 87.7 µM (inactive) | 97.7 µM (inactive) | > 100 µM (inactive) | 52.4 µM (inactive) | 52.8 µM (inactive) | > 79.6 µM (inactive) | > 53.2 µM (inactive) | > 63.4 µM (inactive) | 51.1 µM (inactive) | – | –
CN(CN1C(=O)C2Cc3ccccc3CN2C1=O)c1ccccn1 (stereo not drawn) | – | > 100 µM (inactive) | > 100 µM (inactive) | > 100 µM (inactive) | > 100 µM (inactive) | – | > 100 µM (inactive) | – | – | > 100 µM (inactive) | > 100 µM (inactive) | > 100 µM (inactive) | > 100 µM (inactive) | > 100 µM (inactive) | > 100 µM (inactive) | – | > 100 µM (inactive) | > 100 µM (inactive) | > 100 µM (inactive) | > 100 µM (inactive)
CN(C)CCNc1ccc(C(=O)NCCCN(C)CCCNC(=O)c2ccc(NCCN(C)C)c3c(=O)c4ccccc4[nH]c23)c2[nH]c3ccccc3c(=O)c12 | < 0.0347 µM (active) | 0.0199 µM (active) | 0.0322 µM (active) | 0.0333 µM (active) | 5.6 µM (inactive) | 5.08 µM (inactive) | < 0.01 µM (active) | 0.0809 µM (active) | 0.109 µM (active) | < 0.01 µM (active) | 0.0489 µM (active) | 0.0467 µM (active) | 0.146 µM (active) | 0.0272 µM (active) | < 0.0119 µM (active) | 0.0724 µM (active) | 0.0458 µM (active) | < 0.0291 µM (active) | – | –
COc1cc(C(=O)NNC(=O)c2cc(Br)ccc2NC(=O)c2cccs2)cc(OC)c1OC | 20.9 µM (inactive) | 13.7 µM (inactive) | 12 µM (inactive) | 22.8 µM (inactive) | 29 µM (inactive) | 18.5 µM (inactive) | 17.1 µM (inactive) | 13.1 µM (inactive) | 9.16 µM (inactive) | 20 µM (inactive) | 19.4 µM (inactive) | 23.2 µM (inactive) | 13.8 µM (inactive) | 19.1 µM (inactive) | 17.7 µM (inactive) | 15.3 µM (inactive) | 16.4 µM (inactive) | 16.3 µM (inactive) | – | –
CCC1([N+](=O)[O-])CN(N=O)C1 | > 100 µM (inactive) | > 100 µM (inactive) | > 100 µM (inactive) | > 100 µM (inactive) | > 100 µM (inactive) | > 100 µM (inactive) | > 100 µM (inactive) | > 100 µM (inactive) | > 100 µM (inactive) | > 100 µM (inactive) | > 100 µM (inactive) | > 100 µM (inactive) | > 100 µM (inactive) | > 100 µM (inactive) | > 100 µM (inactive) | 34.4 µM (inactive) | > 100 µM (inactive) | > 100 µM (inactive) | – | –
CC(=O)O[C@@]1(C)[C@@H](C)C(=O)O[C@@H]2CCN3CC=C(COC(=O)[C@]1(C)O)[C@H]23 | – | > 100 µM (inactive) | > 100 µM (inactive) | > 100 µM (inactive) | > 100 µM (inactive) | – | > 100 µM (inactive) | – | – | – | > 100 µM (inactive) | > 100 µM (inactive) | > 100 µM (inactive) | > 100 µM (inactive) | > 100 µM (inactive) | > 100 µM (inactive) | > 100 µM (inactive) | > 100 µM (inactive) | > 100 µM (inactive) | > 100 µM (inactive)
O=CC1=CCCC2(C1)OCCO2 | – | – | > 100 µM (inactive) | > 100 µM (inactive) | > 100 µM (inactive) | – | > 100 µM (inactive) | > 100 µM (inactive) | > 100 µM (inactive) | > 100 µM (inactive) | > 100 µM (inactive) | > 100 µM (inactive) | > 100 µM (inactive) | > 100 µM (inactive) | > 100 µM (inactive) | > 100 µM (inactive) | – | > 100 µM (inactive) | – | > 100 µM (inactive)
O=Nc1c(-c2cccc([N+](=O)[O-])c2)nc2cnccn12 | 31.7 µM (inactive) | 18.5 µM (inactive) | 17.7 µM (inactive) | 30.9 µM (inactive) | 17 µM (inactive) | 21.4 µM (inactive) | 20.4 µM (inactive) | 23 µM (inactive) | 68.7 µM (inactive) | 24.4 µM (inactive) | 16.7 µM (inactive) | 22.2 µM (inactive) | 29.4 µM (inactive) | 14.5 µM (inactive) | 16 µM (inactive) | 20 µM (inactive) | 20.1 µM (inactive) | 26.6 µM (inactive) | – | –
COc1ccccc1NC(=O)CC(=O)N1N=C(c2ccccc2)C(/N=N/c2ccc(Cl)cc2)C1=O (stereo not drawn) | – | 27.5 µM (inactive) | 25.2 µM (inactive) | 49.5 µM (inactive) | 19.5 µM (inactive) | – | 30.9 µM (inactive) | – | 21.9 µM (inactive) | 68.1 µM (inactive) | 34.4 µM (inactive) | – | 14.6 µM (inactive) | 41.8 µM (inactive) | 13.9 µM (inactive) | – | > 100 µM (inactive) | 23.4 µM (inactive) | 71.8 µM (inactive) | 57.1 µM (inactive)
CN1C(=O)C(C)(C)C2(SC(C)(C)C2(C)C)N(C)C1=S (stereo not drawn) | – | > 100 µM (inactive) | > 100 µM (inactive) | > 100 µM (inactive) | 8.49 µM (inactive) | – | > 100 µM (inactive) | > 100 µM (inactive) | 36.1 µM (inactive) | > 100 µM (inactive) | > 100 µM (inactive) | > 100 µM (inactive) | > 10 µM (inactive) | > 100 µM (inactive) | > 100 µM (inactive) | 27.8 µM (inactive) | > 100 µM (inactive) | > 100 µM (inactive) | – | > 100 µM (inactive)
NC(=O)c1cccc(/N=c2\oc3ccc(Br)cc3cc2-c2nc3ccccc3[nH]2)c1 | 27.4 µM (inactive) | 0.075 µM (active) | 18.8 µM (inactive) | 18.5 µM (inactive) | 18 µM (inactive) | 12.1 µM (inactive) | 13.2 µM (inactive) | 22 µM (inactive) | 16.4 µM (inactive) | 17.4 µM (inactive) | 16 µM (inactive) | 22.5 µM (inactive) | 1.81 µM (inactive) | 7.62 µM (inactive) | 14.5 µM (inactive) | 19 µM (inactive) | 16.3 µM (inactive) | 16.2 µM (inactive) | – | –
O=C(CC(=O)CC(O)(C(F)(F)F)C(F)(F)F)CC(O)(C(F)(F)F)C(F)(F)F | > 10 µM (inactive) | > 10 µM (inactive) | > 10 µM (inactive) | > 10 µM (inactive) | > 10 µM (inactive) | > 10 µM (inactive) | > 10 µM (inactive) | > 10 µM (inactive) | > 10 µM (inactive) | > 10 µM (inactive) | > 10 µM (inactive) | > 10 µM (inactive) | > 10 µM (inactive) | > 10 µM (inactive) | > 10 µM (inactive) | 5.75 µM (inactive) | > 10 µM (inactive) | > 10 µM (inactive) | – | –
COc1ccc(/C=C(/C(=O)O)c2cc(OC)c(OC)c(OC)c2)cc1 | – | 44.8 µM (inactive) | 41.4 µM (inactive) | 63 µM (inactive) | 44.9 µM (inactive) | – | 35.2 µM (inactive) | – | > 100 µM (inactive) | 46.9 µM (inactive) | 27.2 µM (inactive) | 30.1 µM (inactive) | 41.1 µM (inactive) | 63.5 µM (inactive) | 41.3 µM (inactive) | > 100 µM (inactive) | > 100 µM (inactive) | 35 µM (inactive) | 22.2 µM (inactive) | 79.8 µM (inactive)
C/C=C1/CN2[C@@H](C3=C[C@@H]4[C@@H]5N(C3=O)c3ccccc3[C@@]53CCN5C/C(=C/C)[C@@H]4C[C@H]53)C[C@@]34c5ccccc5N5C(=O)CC=C([C@H]1C[C@H]23)[C@H]54 [ISOSUNGUCINE] | 6.65 µM (inactive) | 7.83 µM (inactive) | 6.43 µM (inactive) | 5.41 µM (inactive) | 5.86 µM (inactive) | 8.81 µM (inactive) | 2.23 µM (inactive) | 2.17 µM (inactive) | 8.77 µM (inactive) | 3.01 µM (inactive) | 6.85 µM (inactive) | 6.04 µM (inactive) | 2.75 µM (inactive) | 3.91 µM (inactive) | 2.16 µM (inactive) | 5.55 µM (inactive) | 7.76 µM (inactive) | 7.06 µM (inactive) | – | –
